This note sets out measurements from publication PMC10433800, “Dissecting the Arginine and Lysine Biosynthetic Pathways and Their Relationship in Haloarchaeon Natrinema gari J7-2 via Endogenous CRISPR-Cas System-Based Genome Editing” (Microbiology Spectrum, 2023).

Molecules are shown by their SMILES.

The target of this test is T1, NgArgX (Natrinema gari, UniProt L9YZH8).
T1 construct: gene C486_12678; ArgX with His tag (C-terminal in complementation plasmids), expressed in and partially purified from the J7-2 delta-argWX strain; carrier ArgW with N-terminal His tag purified from E. coli BL21(DE3); with Alpha-aminoadipate/glutamate carrier protein LysW/ArgW
T1 sequence (L9YZH8 1-291): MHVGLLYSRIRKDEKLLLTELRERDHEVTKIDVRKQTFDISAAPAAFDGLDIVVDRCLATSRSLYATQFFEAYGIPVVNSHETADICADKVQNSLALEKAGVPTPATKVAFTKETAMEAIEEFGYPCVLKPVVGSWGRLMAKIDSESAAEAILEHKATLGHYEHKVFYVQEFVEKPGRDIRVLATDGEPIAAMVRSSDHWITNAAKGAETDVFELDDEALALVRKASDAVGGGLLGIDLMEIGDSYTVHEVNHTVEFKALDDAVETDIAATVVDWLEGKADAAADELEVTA
The test is described as follows: LC-MS/MS of trypsin-digested NgArgW-glutamate product. The format is biochemical. As to conditions: 10 mM glutamate, 20 mM ATP, 1 mM MgCl2, 0.1 mM ZnSO4, 3 M KCl, 100 mM HEPES pH 7.5, 45 °C, 12 h; glutamate ligated to Glu54 of NgArgW; enzyme partially purified.

Regarding `N[C@@H](CCC(=O)O)C(=O)O` [glutamate], the “LC-MS/MS of trypsin-digested NgArgW-glutamate product” value is “both NgArgX and NgArgXa specifically act on glutamate rather than AAA”.
